# Source: US20050113579A1, “Naphthalimide synthesis including amonafide synthesis and pharmaceutical preparations thereof” (ChemGenex Therapeutics, Inc., priority 2002, published 2005)
# Structures can show the parent of a compound that is named as a salt.
# What was measured:
# [1] = free base; background statement; cited from earlier work
# physchem = format: physicochemical
# Experimental: Precipitation occurs as pH increases above 6.5. Solubility is about 1 mg/mL at pH 9 and 0.05 mg/mL at pH 11.
# [2] = Titration with sodium hydroxide; format: physicochemical
# Experimental: 561 mg amonafide dihydrochloride (1.57 mmol) was dissolved in 10 mL water to yield a clear red solution with pH at 1.2. With constant stirring, 1N NaOH solution was added. Solution remained clear until pH greater than 6.7. As shown in the titration curve below, 3.3 mmol NaOH was used to neutralize amonafide dihydrochloride in the solution. The calculated mol ratio of amonafide to NaOH was 1:2. [drawing]
# [3] = Solubility in water (general statements); format: physicochemical; conditions: general statement
# [4] = Osmolality of the product; format: physicochemical
Structure (SMILES),solubility in water [1],pH above which precipitation occurs (physchem; as pH increases),"solubility (physchem; pH 1, water)","solubility (physchem; pH 9, aqueous buffer)","solubility (physchem; pH 11, aqueous buffer)","pH of solution ([2]; 561 mg (1.57 mmol) dissolved in 10 mL water, clear red solution)",pH until which solution remained clear ([2]; 1N NaOH added with constant stirring),solubility in water compared to monohydrochloride salt [3],osmolality [4]
"CN(C)CCN1C(=O)c2cccc3cc(N)cc(c23)C1=O [Amonafide, 5-amino-2-[(dimethylamine)ethyl]-1H-benz[de-]isoquinoline-1,3-(2H)-dione]",very poorly soluble,,,,,,,,
CN(C)CCN1C(=O)c2cccc3cc(N)cc(c23)C1=O [amonafide dihydrochloride],,above 6.5,> 250000 µg/mL,~1000 µg/mL,50 µg/mL,1.2,greater than 6.7,more soluble in water,equivalent to 0.9% sodium chloride solution
